# Reference: PubChem BioAssay AID200 (DTP/NCI, 2004)
# “And” between values parts separate entries of the source, which are not always exact repeats. Identical values can stand only once. Toxic doses and inconclusive results are not listed. Where a SMILES comes first, the peptide text is derived from it.
# Test system: B6C3F1 mice, B16 melanoma ip, median survival T/C
# Test: NCI In Vivo Anticancer Drug Screen. Data for tumor model B16 Melanoma (intraperitoneal) in B6C3F1 mice
# Details: endpoint: median survival time, higher = longer survival
# In short: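 Values are T/C ratios: the measurement in treated animals divided by that in vehicle-treated controls, using survival or tumor size in mice carrying transplantable tumors.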
# [1] = dose: 12.5 mg/kg/injection, schedule: Q01DX009 (ip), vehicle: Klucel (hydroxypropylcellulose) (HPC)
# [2] = dose: 25.0 mg/kg/injection, schedule: Q01DX009 (ip), vehicle: Klucel (hydroxypropylcellulose) (HPC)
# [3] = dose: 12.5 mg/kg/injection, schedule: Q01DX009 (ip), vehicle: saline with Tween-80
# [4] = dose: 25.0 mg/kg/injection, schedule: Q01DX009 (ip), vehicle: saline with Tween-80
# [5] = dose: 50.0 mg/kg/injection, schedule: Q01DX009 (ip), vehicle: saline with Tween-80
# [6] = dose: 6.25 mg/kg/injection, schedule: Q01DX009 (ip), vehicle: saline
# [7] = dose: 12.5 mg/kg/injection, schedule: Q01DX009 (ip), vehicle: saline
# [8] = dose: 50.0 mg/kg/injection, schedule: Q01DX009 (ip), vehicle: saline
# [9] = dose: 6.25 mg/kg/injection, schedule: Q01DX009 (ip), vehicle: water
# [10] = dose: 3.0 mg/kg/injection, schedule: Q01DX009 (ip), vehicle: saline
# [11] = dose: 6.0 mg/kg/injection, schedule: Q01DX009 (ip), vehicle: saline
# [12] = dose: 12.0 mg/kg/injection, schedule: Q01DX009 (ip), vehicle: saline
# [13] = dose: 0.75 mg/kg/injection, schedule: Q01DX009 (ip), vehicle: saline
# [14] = dose: 1.5 mg/kg/injection, schedule: Q01DX009 (ip), vehicle: saline
# [15] = dose: 100.0 mg/kg/injection, schedule: Q01DX009 (ip), vehicle: Klucel (hydroxypropylcellulose) (HPC)
# [16] = dose: 200.0 mg/kg/injection, schedule: Q01DX009 (ip), vehicle: Klucel (hydroxypropylcellulose) (HPC)
# [17] = dose: 37.5 mg/kg/injection, schedule: Q01DX009 (ip), vehicle: saline
# [18] = dose: 75.0 mg/kg/injection, schedule: Q01DX009 (ip), vehicle: saline
# [19] = dose: 150.0 mg/kg/injection, schedule: Q01DX009 (ip), vehicle: saline
# [20] = dose: 50.0 mg/kg/injection, schedule: Q01DX009 (ip), vehicle: Klucel (hydroxypropylcellulose) (HPC)
# [21] = dose: 2.5 mg/kg/injection, schedule: Q01DX009 (ip), vehicle: saline
# [22] = dose: 5.0 mg/kg/injection, schedule: Q01DX009 (ip), vehicle: saline
compound,measurement,setting,value
CC1=C(CCC(=O)O)c2cc3nc(cc4[nH]c(cc5[nH]c(cc1n2)c(C)c5C(C)O)c(C)c4C(C)O)C(C)=C3CCC(=O)O (stereo unspecified),T/C,"dose: 3.13 mg/kg/injection, schedule: Q01DX009 (ip), vehicle: Klucel (hydroxypropylcellulose) (HPC)",111 % of control
same,T/C,"dose: 6.25 mg/kg/injection, schedule: Q01DX009 (ip), vehicle: Klucel (hydroxypropylcellulose) (HPC)",115 % of control
same,T/C,[1],107 % of control
same,T/C,[2],104 % of control
O=S(=O)(N=N/C=C1\C=CC=CN1O)c1cccs1,T/C,[3],101 % of control
same,T/C,[4],104 % of control
same,T/C,[5],114 % of control
Oc1ccc(O)cc1,T/C,"dose: 3.13 mg/kg/injection, schedule: Q01DX009 (ip), vehicle: saline",101 % of control
same,T/C,[6],88 % of control
same,T/C,[7],95 % of control
same,T/C,"dose: 25.0 mg/kg/injection, schedule: Q01DX009 (ip), vehicle: saline",110 % of control
same,T/C,[8],98 % of control
CNC(=O)c1cccc2c(Nc3ccc(NS(C)(=O)=O)cc3OC)c3cccc(C)c3nc12,T/C,"dose: 0.75 mg/kg/injection, schedule: Q01DX009 (ip), vehicle: water",116 % of control
same,T/C,"dose: 0.78 mg/kg/injection, schedule: Q01DX009 (ip), vehicle: water",114 % of control
same,T/C,"dose: 3.0 mg/kg/injection, schedule: Q01DX009 (ip), vehicle: water",168 % of control
same,T/C,[9],106 % of control
O=c1n(CC2CO2)c(=O)n(CC2CO2)n1CC1CO1 (stereo unspecified),T/C,[10],172 % of control
same,T/C,[11],212 % of control
same,T/C,[6],183 % of control
same,T/C,[12],300 % of control
same,T/C,[7],198 % of control
CC[C@@]1(O)C[C@H](OC2CC(N(C)C)C(OC3CC(O)C(O[C@@H]4O[C@@H](C)C(=O)C=C4N)C(C)O3)C(C)O2)c2c(cc3c(c2O)C(=O)c2c(O)ccc(O)c2C3=O)[C@H]1C(=O)OC (stereo partly specified),T/C,"dose: 0.02 mg/kg/injection, schedule: Q01DX001 (ip), vehicle: suspension in saline",102 % of control
same,T/C,"dose: 0.05 mg/kg/injection, schedule: Q01DX001 (ip), vehicle: suspension in saline",111 % of control
same,T/C,"dose: 0.1 mg/kg/injection, schedule: Q01DX001 (ip), vehicle: suspension in saline",111 % of control
same,T/C,"dose: 0.19 mg/kg/injection, schedule: Q01DX009 (ip), vehicle: saline",121 % of control
same,T/C,"dose: 0.2 mg/kg/injection, schedule: Q01DX001 (ip), vehicle: suspension in saline",116 % of control
same,T/C,"dose: 0.4 mg/kg/injection, schedule: Q01DX001 (ip), vehicle: suspension in saline",121 % of control
same,T/C,[13],153 % of control
same,T/C,"dose: 0.8 mg/kg/injection, schedule: Q01DX001 (ip), vehicle: suspension in saline",121 % of control
same,T/C,[14],173 % of control
same,T/C,[10],179 % of control
same,T/C,"dose: 3.2 mg/kg/injection, schedule: Q01DX001 (ip), vehicle: suspension in saline",152 % of control
CCCC(NC(=O)CNC(=O)OCc1ccccc1)C(=O)O (stereo unspecified) (HELM PEPTIDE1{[O=C(OCc1ccccc1)[*:2]].G.[CCCC(N[*:1])C(=O)O]}$$$$V2.0),T/C,[15],104 % of control
same,T/C,[16],92 % of control
COc1cccc2c1C(=O)c1c(O)c3c(c(O)c1C2=O)CC(O)(/C(C)=N/NC(=O)CCCCC(=O)N/N=C(\C)C1(O)Cc2c(O)c4c(c(O)c2C(OC2CC(N)C(O)C(C)O2)C1)C(=O)c1c(OC)cccc1C4=O)CC3OC1CC(N)C(O)C(C)O1 (stereo unspecified),T/C,"dose: 1.56 mg/kg/injection, schedule: Q01DX009 (ip), vehicle: water",191 % of control
same,T/C,"dose: 3.12 mg/kg/injection, schedule: Q01DX009 (ip), vehicle: water",216 % of control
same,T/C,[9],335 % of control
CCC/C(=N/NC(N)=O)C(OC)OC,T/C,[17],110 % of control
same,T/C,[18],98 % of control
same,T/C,[19],106 % of control
CC(NC(=O)OCc1ccccc1)C(=O)NC(C(=O)O)C(C)O (stereo unspecified),T/C,[15],98 % of control
same,T/C,[16],106 % of control
COC(=O)C(CSCc1ccccc1)NC(=O)C(C)NC(=O)OCc1ccccc1 (stereo unspecified),T/C,[20],97 % of control
same,T/C,[15],90 % of control
same,T/C,[16],90 % of control
O=CC(CO)CC(C=O)n1cnc2c(=O)[nH]cnc21 (stereo unspecified),T/C,[17],106 % of control
same,T/C,[18],108 % of control
same,T/C,[19],100 % of control
same,T/C,"dose: 300.0 mg/kg/injection, schedule: Q01DX009 (ip), vehicle: saline",111 % of control
CCC(NC(N)=O)C(CC)NC(N)=O (stereo unspecified),T/C,[3],99 % of control
same,T/C,[4],96 % of control
same,T/C,[5],89 % of control
CSc1cc(C)[o+]c(C)c1,T/C,[1],106 % of control
same,T/C,[2],105 % of control
same,T/C,[20],106 % of control
same,T/C,[15],109 % of control
same,T/C,[16],101 % of control
COC(=O)C12OCC34C(CC5C(C)C6=CC(=O)OC6=CC5(C)C3C(O)C1O)OC(=O)C(OC(C)=O)C24 (stereo unspecified),T/C,"dose: 0.12 mg/kg/injection, schedule: Q01DX009 (ip), vehicle: saline + alcohol",110 % of control
same,T/C,"dose: 0.25 mg/kg/injection, schedule: Q01DX009 (ip), vehicle: saline + alcohol",109 % of control
same,T/C,"dose: 0.5 mg/kg/injection, schedule: Q01DX009 (ip), vehicle: saline + alcohol",105 % of control
same,T/C,"dose: 1.0 mg/kg/injection, schedule: Q01DX009 (ip), vehicle: saline + alcohol",103 % of control
same,T/C,"dose: 2.0 mg/kg/injection, schedule: Q01DX009 (ip), vehicle: saline + alcohol",109 % of control
CNC(=O)OCc1c(COC(=O)NC)c(C)n(-c2ccc(OC)cc2)c1C,T/C,"dose: 3.12 mg/kg/injection, schedule: Q01DX009 (ip), vehicle: Klucel (hydroxypropylcellulose) (HPC)",112 % of control
same,T/C,[20],111 % of control
ClCCCN1CCN(CCCl)CC1,T/C,"dose: 1.25 mg/kg/injection, schedule: Q01DX009 (ip), vehicle: saline",98 % of control
same,T/C,[21],124 % of control and 99 % of control
COC1=CCC23C(=O)C=CC(=O)C2(C1)C(=O)c1ccccc1C3=O (stereo unspecified),T/C,"dose: 1.56 mg/kg/injection, schedule: Q01DX009 (ip), vehicle: saline with Tween-80",99 % of control
same,T/C,"dose: 3.12 mg/kg/injection, schedule: Q01DX009 (ip), vehicle: saline with Tween-80",96 % of control
same,T/C,"dose: 6.25 mg/kg/injection, schedule: Q01DX009 (ip), vehicle: saline with Tween-80",93 % of control
same,T/C,[3],94 % of control
CCC1=C[C@H]2CN(CCc3c([nH]c4ccccc34)[C@@](C(=O)OC)(c3cc4c(cc3OC)N(C)[C@H]3[C@@](O)(C(=O)NN)[C@H](O)[C@]5(CC)C=CCN6CC[C@]43[C@@H]65)C2)C1,T/C,"dose: 15.62 micrograms/kg/injection, schedule: Q01DX009 (ip), vehicle: water",116 % of control
same,T/C,"dose: 31.25 micrograms/kg/injection, schedule: Q01DX009 (ip), vehicle: water",119 % of control
same,T/C,"dose: 125.0 micrograms/kg/injection, schedule: Q01DX009 (ip), vehicle: water",167 % of control
same,T/C,"dose: 250.0 micrograms/kg/injection, schedule: Q01DX009 (ip), vehicle: water",166 % of control
same,T/C,"dose: 500.0 micrograms/kg/injection, schedule: Q01DX009 (ip), vehicle: water",176 % of control
O=C(O)C1CC(O)CN1 (stereo unspecified),T/C,[8],101 % of control
same,T/C,"dose: 100.0 mg/kg/injection, schedule: Q01DX009 (ip), vehicle: saline",101 % of control
same,T/C,"dose: 200.0 mg/kg/injection, schedule: Q01DX009 (ip), vehicle: saline",96 % of control
same,T/C,"dose: 400.0 mg/kg/injection, schedule: Q01DX009 (ip), vehicle: saline",106 % of control
same,T/C,"dose: 800.0 mg/kg/injection, schedule: Q01DX009 (ip), vehicle: saline",108 % of control
CCCCCCCCCCCCCCCCN(CC)CC,T/C,[21],99 % of control
same,T/C,[22],97 % of control
same,T/C,"dose: 10.0 mg/kg/injection, schedule: Q01DX009 (ip), vehicle: saline",90 % of control
O=c1[nH]cnc2c1ccn2C1OC(CO)C(O)C1O (stereo unspecified),T/C,"dose: 0.37 mg/kg/injection, schedule: Q01DX009 (ip), vehicle: saline",106 % of control
same,T/C,[13],99 % of control
same,T/C,[14],106 % of control
same,T/C,[10],113 % of control
same,T/C,[11],115 % of control
same,T/C,[12],105 % of control
CCC(C)C(=O)OC1C(=O)OC2CC3C(C)=CC(=O)C(O)C3(C)C3C4(O)OCC23C1C(C)C4O (stereo unspecified),T/C,[21],160 % of control
same,T/C,[22],176 % of control
